Experiments:
[1] = molecular target: fatty acid synthase (FAS) (Homo sapiens, UniProt P49327); assay: Phase partition assay of fatty acid synthase activity; format: biochemical; details: FAS (35 ng), incubated for 90 minutes, conditions of FIG. 1
Protocol: FAS was incubated at varying concentrations and times at room temperature with 400 μM NADPH, 100 μM acetyl-CoA, and 20 μM malonyl-CoA (0.02 μCi [malonyl-2-^14C]-CoA) in buffer containing 50 mM MOPS (pH 6.8), 5 mM DTT, 1 mM EDTA, and 0.03% BSA in a total volume of 100 μL. The reaction was terminated by the addition of 10 μL of 10 N acetic acid, followed by the addition of 150 μL Microscint™-CAT. The mix was allowed to incubate overnight prior to data acquisition.
Inhibition of FAS by cerulenin. FAS (35 ng) was incubated for 90 minutes with cerulenin under conditions described in FIG. 1.
This method of the present invention permits radiometric detection of FAS activity via a gain of signal assay using [2-^14C]malonyl CoA as the radiolabel and partitioning of the radioactive products (^14C-labeled oleic acid and palmitic acid) into the PPSF (Microscint™-E), following acidification and addition of PPSF to the reaction mixture.
A typical 96-well density reaction is partitioned in the following manner: an enzyme assay inhibitor test mix (100 μL) containing enzyme, substrates, test compounds, and buffer components is incubated at room temperature to generate the fatty acid products. […] Enzyme activity is proportional to the radioactivity in the organic phase as determined by liquid scintillation counting. […]

[2] = molecular target: farnesyl-diphosphate synthase (FPPS) (Homo sapiens, UniProt P14324); details: FPPS (25 ng), incubated for 2 hours, conditions of FIG. 4
Chain of farnesyl-diphosphate synthase (FPPS) (P14324 whole entry): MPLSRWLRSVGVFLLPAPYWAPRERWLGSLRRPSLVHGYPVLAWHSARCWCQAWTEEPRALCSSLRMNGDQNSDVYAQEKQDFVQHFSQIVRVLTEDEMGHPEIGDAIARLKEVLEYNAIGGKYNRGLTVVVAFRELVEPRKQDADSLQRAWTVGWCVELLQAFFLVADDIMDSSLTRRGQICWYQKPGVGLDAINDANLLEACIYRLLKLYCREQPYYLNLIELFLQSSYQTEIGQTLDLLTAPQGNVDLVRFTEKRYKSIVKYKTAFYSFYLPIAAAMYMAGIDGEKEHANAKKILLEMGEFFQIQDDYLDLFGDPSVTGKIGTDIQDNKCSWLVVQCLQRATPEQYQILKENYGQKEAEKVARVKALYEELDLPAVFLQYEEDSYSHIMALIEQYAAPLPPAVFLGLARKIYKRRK
Protocol: Time course and protein dependence of farnesyl-diphosphate synthase (FPPS)-produced product partitioning into the organic phase. FPPS was incubated at varying concentrations and times at room temperature with 5 μM geranyl pyrophosphate (GPP) and 5 μM IPP (0.0125 μCi; [1-^14C]isopentenyl pyrophosphate) in a buffer containing 25 mM HEPES (pH 7.5), 1 mM DTT, and 1 mM MgCl2 in a total volume of 40 μL. The reaction was terminated by the addition of 10 μL of 5% phosphoric acid, followed by 50 μL Microscint™-CAT. The mix was allowed to incubate two hours prior to data acquisition. […]
A typical 384-well density reaction is partitioned with the following proportion of reagents: 40 μL enzyme assay inhibitor test mix containing FPP synthetase, substrates, test compounds, and buffer components is incubated at room temperature to generate farnesyl diphosphate. […] Enzyme activity is proportional to the radioactivity in the organic phase as determined by liquid scintillation counting (LSC). This radioactivity corresponds to products of acid treatment of the enzyme reaction, farnesol and nerolidol, as determined by LSC of authentic [1,2-^14C]trans, trans farnesol. […] The theoretical signal to background of the assay is established by comparing CPMs in the PPSF using equimolar amounts and equal amounts of radioactivity of radiolabeled substrate and product. […]

Chain of fatty acid synthase (FAS) (P49327 whole entry, species assumed): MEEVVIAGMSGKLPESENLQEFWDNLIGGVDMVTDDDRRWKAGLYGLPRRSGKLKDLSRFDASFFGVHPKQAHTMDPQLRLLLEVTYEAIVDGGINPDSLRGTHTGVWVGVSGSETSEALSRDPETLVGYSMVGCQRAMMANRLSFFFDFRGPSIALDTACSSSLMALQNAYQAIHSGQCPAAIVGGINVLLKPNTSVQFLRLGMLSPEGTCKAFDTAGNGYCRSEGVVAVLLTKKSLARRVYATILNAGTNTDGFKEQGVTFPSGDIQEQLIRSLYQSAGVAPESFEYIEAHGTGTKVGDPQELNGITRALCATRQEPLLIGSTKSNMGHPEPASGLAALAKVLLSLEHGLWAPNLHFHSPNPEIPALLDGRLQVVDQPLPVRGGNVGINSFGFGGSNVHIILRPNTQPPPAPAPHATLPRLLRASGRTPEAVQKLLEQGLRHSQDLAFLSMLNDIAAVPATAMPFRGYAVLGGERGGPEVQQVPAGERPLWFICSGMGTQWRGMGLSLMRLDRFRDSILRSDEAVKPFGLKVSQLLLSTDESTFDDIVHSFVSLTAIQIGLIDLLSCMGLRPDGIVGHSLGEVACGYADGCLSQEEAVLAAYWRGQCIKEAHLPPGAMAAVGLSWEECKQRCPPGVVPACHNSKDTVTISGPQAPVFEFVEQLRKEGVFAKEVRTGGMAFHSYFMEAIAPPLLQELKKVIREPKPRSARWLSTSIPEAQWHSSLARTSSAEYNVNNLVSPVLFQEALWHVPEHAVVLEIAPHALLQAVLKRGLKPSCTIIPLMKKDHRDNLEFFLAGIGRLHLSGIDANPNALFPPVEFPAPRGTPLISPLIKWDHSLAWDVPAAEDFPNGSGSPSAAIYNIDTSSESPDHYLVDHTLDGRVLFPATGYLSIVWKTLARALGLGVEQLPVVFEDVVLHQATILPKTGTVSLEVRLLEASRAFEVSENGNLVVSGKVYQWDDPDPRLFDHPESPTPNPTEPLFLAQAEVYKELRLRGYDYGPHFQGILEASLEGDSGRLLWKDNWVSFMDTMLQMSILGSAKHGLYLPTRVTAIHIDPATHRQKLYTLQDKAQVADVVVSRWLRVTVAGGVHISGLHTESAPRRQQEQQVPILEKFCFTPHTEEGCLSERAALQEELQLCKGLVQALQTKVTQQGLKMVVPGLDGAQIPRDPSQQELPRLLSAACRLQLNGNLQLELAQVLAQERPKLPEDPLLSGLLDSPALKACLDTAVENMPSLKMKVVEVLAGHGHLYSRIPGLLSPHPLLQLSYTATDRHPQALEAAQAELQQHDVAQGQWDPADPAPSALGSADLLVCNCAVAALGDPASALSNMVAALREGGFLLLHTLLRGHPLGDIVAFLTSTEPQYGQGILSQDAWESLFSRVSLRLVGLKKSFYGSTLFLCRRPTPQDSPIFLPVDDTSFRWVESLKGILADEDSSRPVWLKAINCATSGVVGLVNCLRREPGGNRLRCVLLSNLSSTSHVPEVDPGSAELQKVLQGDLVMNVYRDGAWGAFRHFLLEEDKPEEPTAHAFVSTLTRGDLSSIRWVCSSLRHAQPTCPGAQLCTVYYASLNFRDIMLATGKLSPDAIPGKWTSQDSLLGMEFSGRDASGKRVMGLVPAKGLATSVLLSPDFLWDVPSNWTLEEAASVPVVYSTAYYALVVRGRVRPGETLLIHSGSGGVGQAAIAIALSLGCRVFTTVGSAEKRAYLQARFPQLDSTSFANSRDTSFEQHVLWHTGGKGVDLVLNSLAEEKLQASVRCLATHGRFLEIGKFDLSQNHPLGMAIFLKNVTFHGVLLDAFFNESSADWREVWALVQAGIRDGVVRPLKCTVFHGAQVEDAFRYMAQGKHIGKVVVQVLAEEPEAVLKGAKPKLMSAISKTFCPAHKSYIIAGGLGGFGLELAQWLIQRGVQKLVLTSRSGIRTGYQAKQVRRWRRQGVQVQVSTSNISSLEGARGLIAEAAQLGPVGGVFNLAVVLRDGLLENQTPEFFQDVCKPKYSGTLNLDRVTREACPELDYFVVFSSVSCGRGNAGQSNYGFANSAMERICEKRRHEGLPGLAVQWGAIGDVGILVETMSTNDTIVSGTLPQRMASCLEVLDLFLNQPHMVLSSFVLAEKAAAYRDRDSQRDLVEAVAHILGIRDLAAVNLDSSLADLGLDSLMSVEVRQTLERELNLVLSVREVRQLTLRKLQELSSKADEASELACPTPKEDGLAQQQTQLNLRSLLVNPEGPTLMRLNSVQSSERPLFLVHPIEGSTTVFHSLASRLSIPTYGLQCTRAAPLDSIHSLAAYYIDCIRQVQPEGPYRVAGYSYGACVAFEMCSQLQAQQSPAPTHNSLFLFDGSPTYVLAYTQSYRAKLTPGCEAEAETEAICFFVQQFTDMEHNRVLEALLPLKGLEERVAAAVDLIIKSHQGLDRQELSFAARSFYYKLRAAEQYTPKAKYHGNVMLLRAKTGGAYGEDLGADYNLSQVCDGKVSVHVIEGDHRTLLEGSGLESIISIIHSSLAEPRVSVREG

## C/C=C/C/C=C/CCC(=O)[C@H]1O[C@H]1C(N)=O [cerulenin]
[1]
  Inhibition of FAS: Inhibition

## NCCCC(O)(P(=O)(O)O)P(=O)(O)O [alendronate]
[2]
  Inhibition of FPPS: Inhibition
